Each compound was assayed on HBV (assay: HBV-DNA antiviral assay using HepG2.117 cells (intracellular HBV DNA by qPCR)). Conditions: Hepatitis B virus, 72 h, HBV DNA inhibition, 3 days incubation, 2% DMSO.
Assay type: cell-based, genotype D HBV
Outline: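 HepG2.117 cells (stable genotype D HBV, Tet-off) seeded without doxycycline, treated next day with 9-point 4-fold dilutions in 2% DMSO for 3 days at 37° C. Intracellular HBV DNA quantified by qPCR against a standard curve; viability by CellTiter-Glo ATP. EC50, EC90, CC50 from variable-slope dose-response fits versus DMSO control.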

Row | Compound | EC50
1 | CNc1n[nH]c2cc(-n3c(=O)c4c(n5ncc(CC(C)C)c35)CN(C(=O)c3ccc(Br)c(Cl)c3)[C@H](C)C4)ccc12 (stereo in doubt) [Compound 57a, rac-(11R)-12-(4-bromo-3-chloro-benzoyl)-5-isobutyl-11-methyl-7-[3-(methylamino)-1H-indazol-6-yl]-2,3,7,12-tetrazatricyclo[7.4.0.0^2,6]trideca-1(9),3,5-trien-8-one] | < 50 nM
2 | CNc1n[nH]c2cc(-n3c(=O)c4c(n5ncc(CC(C)C)c35)CN(C(=O)c3ccc(Br)c(Cl)c3)[C@@H](C)C4)ccc12 (stereo in doubt) [Compound 57b, rac-(11S)-12-(4-bromo-3-chloro-benzoyl)-5-isobutyl-11-methyl-7-[3-(methylamino)-1H-indazol-6-yl]-2,3,7,12-tetrazatricyclo[7.4.0.0^2,6]trideca-1(9),3,5-trien-8-one] | 50 to 500 nM
3 | C[C@@H]1Cc2c(n3ncc(Cc4ccccc4)c3n(-c3ccc(-c4n[nH]c(=O)n4C)cc3)c2=O)CN1C(=O)c1ccc(Br)c(C(F)(F)F)c1 (stereo in doubt) [Compound 58a, rac-(11R)-5-benzyl-12-[4-bromo-3-(trifluoromethyl)benzoyl]-11-methyl-7-[4-(4-methyl-5-oxo-1H-1,2,4-triazol-3-yl)phenyl]-2,3,7,12-tetrazatricyclo[7.4.0.0^2,6]trideca-1(9),3,5-trien-8-one] | < 50 nM
4 | C[C@H]1Cc2c(n3ncc(Cc4ccccc4)c3n(-c3ccc(-c4n[nH]c(=O)n4C)cc3)c2=O)CN1C(=O)c1ccc(Br)c(C(F)(F)F)c1 (stereo in doubt) [Compound 58b, rac-(11S)-5-benzyl-12-[4-bromo-3-(trifluoromethyl)benzoyl]-11-methyl-7-[4-(4-methyl-5-oxo-1H-1,2,4-triazol-3-yl)phenyl]-2,3,7,12-tetrazatricyclo[7.4.0.0^2,6]trideca-1(9),3,5-trien-8-one] | < 50 nM
5 | Cc1nnc(-c2ccc(-n3c(=O)c4c(n5ncc(CC(C)C)c35)CN(C(=O)c3ccc(Br)c(C(F)(F)F)c3)[C@H](C)C4)cc2)[nH]1 (stereo in doubt) [Compound 59a, rac-(11R)-12-[4-bromo-3-(trifluoromethyl)benzoyl]-5-isobutyl-11-methyl-7-[4-(5-methyl-4H-1,2,4-triazol-3-yl)phenyl]-2,3,7,12-tetrazatricyclo[7.4.0.0^2,6]trideca-1(9),3,5-trien-8-one] | < 50 nM
6 | Cc1nnc(-c2ccc(-n3c(=O)c4c(n5ncc(CC(C)C)c35)CN(C(=O)c3ccc(Br)c(C(F)(F)F)c3)[C@@H](C)C4)cc2)[nH]1 (stereo in doubt) [Compound 59b, rac-(11S)-12-[4-bromo-3-(trifluoromethyl)benzoyl]-5-isobutyl-11-methyl-7-[4-(5-methyl-4H-1,2,4-triazol-3-yl)phenyl]-2,3,7,12-tetrazatricyclo[7.4.0.0^2,6]trideca-1(9),3,5-trien-8-one] | 50 to 500 nM
7 | CNc1n[nH]c2cc(-n3c(=O)c4c(n5ncc(CC(C)C)c35)CN(C(=O)c3ccc(Br)c(C(F)(F)F)c3)[C@H](C)C4)ccc12 (stereo in doubt) [Compound 61a, rac-(11R)-12-[4-bromo-3-(trifluoromethyl)benzoyl]-5-isobutyl-11-methyl-7-[3-(methylamino)-1H-indazol-6-yl]-2,3,7,12-tetrazatricyclo[7.4.0.0^2,6]trideca-1(9),3,5-trien-8-one] | < 50 nM
8 | CNc1n[nH]c2cc(-n3c(=O)c4c(n5ncc(CC(C)C)c35)CN(C(=O)c3ccc(Br)c(C(F)(F)F)c3)[C@@H](C)C4)ccc12 (stereo in doubt) [Compound 61b, rac-(11S)-12-[4-bromo-3-(trifluoromethyl)benzoyl]-5-isobutyl-11-methyl-7-[3-(methylamino)-1H-indazol-6-yl]-2,3,7,12-tetrazatricyclo[7.4.0.0^2,6]trideca-1(9),3,5-trien-8-one] | 50 to 500 nM
9 | Cc1nn[nH]c1-c1ccc(-n2c(=O)c3c(n4ncc(CC(C)C)c24)CN(C(=O)c2ccc(Br)c(C(F)(F)F)c2)[C@H](C)C3)cc1 (stereo in doubt) [Compound 62a, rac-(11R)-12-[4-bromo-3-(trifluoromethyl)benzoyl]-5-isobutyl-11-methyl-7-[4-(4-methyl-1H-triazol-5-yl)phenyl]-2,3,7,12-tetrazatricyclo[7.4.0.0^2,6]trideca-1(9),3,5-trien-8-one] | < 50 nM
10 | Cc1nn[nH]c1-c1ccc(-n2c(=O)c3c(n4ncc(CC(C)C)c24)CN(C(=O)c2ccc(Br)c(C(F)(F)F)c2)[C@@H](C)C3)cc1 (stereo in doubt) [Compound 62b, rac-(11S)-12-[4-bromo-3-(trifluoromethyl)benzoyl]-5-isobutyl-11-methyl-7-[4-(4-methyl-1H-triazol-5-yl)phenyl]-2,3,7,12-tetrazatricyclo[7.4.0.0^2,6]trideca-1(9),3,5-trien-8-one] | 50 to 500 nM
11 | Cc1nn[nH]c1-c1ccc(-n2c(=O)c3c(n4ncc(CC(C)C)c24)CN(C(=O)c2ccc(Cl)c(C(F)(F)F)c2)[C@H](C)C3)cc1 (stereo in doubt) [Compound 63a, rac-(11R)-12-[4-chloro-3-(trifluoromethyl)benzoyl]-5-isobutyl-11-methyl-7-[4-(4-methyl-1H-triazol-5-yl)phenyl]-2,3,7,12-tetrazatricyclo[7.4.0.0^2,6]trideca-1(9),3,5-trien-8-one] | < 50 nM
12 | Cc1nn[nH]c1-c1ccc(-n2c(=O)c3c(n4ncc(CC(C)C)c24)CN(C(=O)c2ccc(Cl)c(C(F)(F)F)c2)[C@@H](C)C3)cc1 (stereo in doubt) [Compound 63b, rac-(11S)-12-[4-chloro-3-(trifluoromethyl)benzoyl]-5-isobutyl-11-methyl-7-[4-(4-methyl-1H-triazol-5-yl)phenyl]-2,3,7,12-tetrazatricyclo[7.4.0.0^2,6]trideca-1(9),3,5-trien-8-one] | 500 to 5000 nM
13 | Cc1nn[nH]c1-c1ccc(-n2c(=O)c3c(n4ncc(CC(C)C)c24)CN(C(=O)c2ccc(Br)c(Cl)c2)[C@H](C)C3)cc1 (stereo in doubt) [Compound 64a, rac-(11R)-12-(4-bromo-3-chloro-benzoyl)-5-isobutyl-11-methyl-7-[4-(4-methyl-1H-triazol-5-yl)phenyl]-2,3,7,12-tetrazatricyclo[7.4.0.0^2,6]trideca-1(9),3,5-trien-8-one] | < 50 nM
14 | Cc1nn[nH]c1-c1ccc(-n2c(=O)c3c(n4ncc(CC(C)C)c24)CN(C(=O)c2ccc(Br)c(Cl)c2)[C@@H](C)C3)cc1 (stereo in doubt) [Compound 64b, rac-(11S)-12-(4-bromo-3-chloro-benzoyl)-5-isobutyl-11-methyl-7-[4-(4-methyl-1H-triazol-5-yl)phenyl]-2,3,7,12-tetrazatricyclo[7.4.0.0^2,6]trideca-1(9),3,5-trien-8-one] | 50 to 500 nM
15 | Cc1nnc(-c2ccc(-n3c(=O)c4c(n5ncc(CC(C)C)c35)CN(C(=O)c3ccc(Cl)c(C(F)(F)F)c3)[C@H](C)C4)cc2)[nH]1 (stereo in doubt) [Compound 65a, rac-(11R)-12-[4-chloro-3-(trifluoromethyl)benzoyl]-5-isobutyl-11-methyl-7-[4-(5-methyl-4H-1,2,4-triazol-3-yl)phenyl]-2,3,7,12-tetrazatricyclo[7.4.0.0^2,6]trideca-1(9),3,5-trien-8-one] | < 50 nM
16 | Cc1nnc(-c2ccc(-n3c(=O)c4c(n5ncc(CC(C)C)c35)CN(C(=O)c3ccc(Cl)c(C(F)(F)F)c3)[C@@H](C)C4)cc2)[nH]1 (stereo in doubt) [Compound 65b, rac-(11S)-12-[4-chloro-3-(trifluoromethyl)benzoyl]-5-isobutyl-11-methyl-7-[4-(5-methyl-4H-1,2,4-triazol-3-yl)phenyl]-2,3,7,12-tetrazatricyclo[7.4.0.0^2,6]trideca-1(9),3,5-trien-8-one] | 500 to 5000 nM
17 | Cc1nnc(-c2ccc(-n3c(=O)c4c(n5ncc(CC(C)C)c35)CN(C(=O)c3ccc(Br)c(Cl)c3)[C@H](C)C4)cc2)[nH]1 (stereo in doubt) [Compound 66a, rac-(11R)-12-(4-bromo-3-chloro-benzoyl)-5-isobutyl-11-methyl-7-[4-(5-methyl-4H-1,2,4-triazol-3-yl)phenyl]-2,3,7,12-tetrazatricyclo[7.4.0.0^2,6]trideca-1(9),3,5-trien-8-one] | < 50 nM
18 | Cc1nnc(-c2ccc(-n3c(=O)c4c(n5ncc(CC(C)C)c35)CN(C(=O)c3ccc(Br)c(Cl)c3)[C@@H](C)C4)cc2)[nH]1 (stereo in doubt) [Compound 66b, rac-(11S)-12-(4-bromo-3-chloro-benzoyl)-5-isobutyl-11-methyl-7-[4-(5-methyl-4H-1,2,4-triazol-3-yl)phenyl]-2,3,7,12-tetrazatricyclo[7.4.0.0^2,6]trideca-1(9),3,5-trien-8-one] | 50 to 500 nM
19 | CC(C)Cc1cnn2c3c(c(=O)n(-c4ccc(-c5nncn5C)cc4)c12)C[C@@H](C)N(C(=O)c1ccc(Cl)c(C(F)(F)F)c1)C3 (stereo in doubt) [Compound 67a, rac-(11R)-12-[4-chloro-3-(trifluoromethyl)benzoyl]-5-isobutyl-11-methyl-7-[4-(4-methyl-1,2,4-triazol-3-yl)phenyl]-2,3,7,12-tetrazatricyclo[7.4.0.0^2,6]trideca-1(9),3,5-trien-8-one] | < 50 nM
20 | CC(C)Cc1cnn2c3c(c(=O)n(-c4ccc(-c5nncn5C)cc4)c12)C[C@H](C)N(C(=O)c1ccc(Cl)c(C(F)(F)F)c1)C3 (stereo in doubt) [Compound 67b, rac-(11S)-12-[4-chloro-3-(trifluoromethyl)benzoyl]-5-isobutyl-11-methyl-7-[4-(4-methyl-1,2,4-triazol-3-yl)phenyl]-2,3,7,12-tetrazatricyclo[7.4.0.0^2,6]trideca-1(9),3,5-trien-8-one] | 50 to 500 nM
21 | CC(C)Cc1cnn2c3c(c(=O)n(-c4ccc(-c5nncn5C)cc4)c12)C[C@@H](C)N(C(=O)c1ccc(Br)c(Cl)c1)C3 (stereo in doubt) [Compound 68a, rac-(11R)-12-(4-bromo-3-chloro-benzoyl)-5-isobutyl-11-methyl-7-[4-(4-methyl-1,2,4-triazol-3-yl)phenyl]-2,3,7,12-tetrazatricyclo[7.4.0.0^2,6]trideca-1(9),3,5-trien-8-one] | < 50 nM
